Measurements: PMC12155096 (International Journal of Molecular Sciences, 2025)

These molecules were tested against T1, human CYP2C19 (Homo sapiens, UniProt P33261) (assay: biochemical). Conditions: CYP2C19 AC50 (half-maximal activity concentration).
T1 sequence (P33261 whole entry): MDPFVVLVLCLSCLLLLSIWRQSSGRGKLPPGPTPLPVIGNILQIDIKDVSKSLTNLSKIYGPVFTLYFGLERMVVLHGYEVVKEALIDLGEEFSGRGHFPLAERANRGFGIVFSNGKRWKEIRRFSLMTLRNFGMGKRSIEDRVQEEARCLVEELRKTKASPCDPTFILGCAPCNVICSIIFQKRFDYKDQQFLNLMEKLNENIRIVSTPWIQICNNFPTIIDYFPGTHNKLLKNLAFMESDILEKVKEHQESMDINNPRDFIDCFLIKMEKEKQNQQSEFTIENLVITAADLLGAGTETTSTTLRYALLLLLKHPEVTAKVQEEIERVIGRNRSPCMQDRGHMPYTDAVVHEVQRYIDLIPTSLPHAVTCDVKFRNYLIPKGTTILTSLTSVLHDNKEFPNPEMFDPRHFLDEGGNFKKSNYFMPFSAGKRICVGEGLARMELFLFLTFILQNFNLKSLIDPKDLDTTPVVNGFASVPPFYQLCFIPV
`CC(C)OC(=O)COc1ccc(Cl)cc1Cl` [2,4-D isopropyl ester] showed an AC50 of 15.5 µM.
Work on `CCC(C)c1cc([N+](=O)[O-])cc([N+](=O)[O-])c1O` (centres unmarked) [Dinoseb] yielded an AC50 of 76.8 µM.
`Oc1c(Cl)c(Cl)c(Cl)c(Cl)c1Cl` [Pentachlorophenol] showed an AC50 of 52.3 µM.

These molecules were tested against human CYP2D6 (Homo sapiens, UniProt P10635) (assay: not given). Conditions: not given.
Chain of human CYP2D6 (P10635 whole entry): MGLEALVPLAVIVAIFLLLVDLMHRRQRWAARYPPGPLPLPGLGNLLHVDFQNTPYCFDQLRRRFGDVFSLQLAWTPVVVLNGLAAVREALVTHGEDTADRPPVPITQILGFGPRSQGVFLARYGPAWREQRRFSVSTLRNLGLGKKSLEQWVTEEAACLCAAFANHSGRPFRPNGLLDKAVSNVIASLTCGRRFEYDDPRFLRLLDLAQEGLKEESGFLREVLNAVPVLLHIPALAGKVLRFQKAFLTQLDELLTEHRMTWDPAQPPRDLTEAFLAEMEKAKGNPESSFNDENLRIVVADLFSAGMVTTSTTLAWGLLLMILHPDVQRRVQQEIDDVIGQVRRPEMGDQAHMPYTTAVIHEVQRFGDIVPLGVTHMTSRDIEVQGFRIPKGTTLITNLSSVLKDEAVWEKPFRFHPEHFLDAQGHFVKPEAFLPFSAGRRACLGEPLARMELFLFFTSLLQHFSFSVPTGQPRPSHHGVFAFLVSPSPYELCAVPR
In the case of `CC=CC(=O)N(CC)c1ccccc1C` (mixture of isomers) [Crotamiton], the “CYP2D6 AC50 (half-maximal activity concentration)” value (from here on “CYP2D6 AC50”) is reported as “Inactive”.
In the case of `CCCCCCCCCCCCN1CCCC1=O` [1-Dodecyl-2-pyrrolidinone], the “CYP2D6 AC50” value is reported as “Inactive”.
With `Oc1c(Cl)cc(Cl)c(Cl)c1Cl` [2,3,4,6-Tetrachlorophenol] the “CYP2D6 AC50” value was “Inactive”.
With `Oc1c(Cl)c(Cl)cc(Cl)c1Cl` [2,3,5,6-Tetrachlorophenol] the “CYP2D6 AC50” value was “Inactive”.
In the case of `O=C(O)c1cc(I)cc(I)c1I` [2,3,5-Triiodobenzoic acid], the “CYP2D6 AC50” value is reported as “Inactive”.
In the case of `Oc1c(Cl)ccc(Cl)c1Cl` [2,3,6-Trichlorophenol], the “CYP2D6 AC50” value is reported as “Inconclusive inhibitor”.
With `CC(C)OC(=O)COc1ccc(Cl)cc1Cl` [2,4-D isopropyl ester] the “CYP2D6 AC50” value was “Inconclusive inhibitor”.
`CCCCCCCCCC(C)C=O` (centres unmarked) [2-Methylundecanal] was tested, and the “CYP2D6 AC50” value was “Inactive”.
For `Oc1nc(Cl)c(Cl)cc1Cl` [3,5,6-Trichloro-2-pyridinol], the “CYP2D6 AC50” value was “Inconclusive inhibitor”.
`CCNc1nc(NC(C)C)nc(SC)n1` [Ametryn] was tested, and the “CYP2D6 AC50” value was “Inactive”.
`CCOC(=O)CCCCCCCCC(=O)OCC` [Diethyl decanedioate] was tested, and the “CYP2D6 AC50” value was “Inactive”.
`CC(C)(C)c1cc([N+](=O)[O-])cc([N+](=O)[O-])c1O` [Dinoterb] was tested, and the “CYP2D6 AC50” value was “Inconclusive inhibitor”.
With `Oc1c(Br)c(Br)c(Br)c(Br)c1Br` [Pentabromophenol] the “CYP2D6 AC50” value was “Inactive”.
With `Oc1c(Cl)c(Cl)c(Cl)c(Cl)c1Cl` [Pentachlorophenol] the “CYP2D6 AC50” value was “Inactive”.
`O=C(Oc1ccccc1)c1ccccc1` [Phenyl benzoate] was tested, and the “CYP2D6 AC50” value was “Inactive”.

The molecules below were run against human CYP2C9 (Homo sapiens, UniProt P11712) (assay: biochemical). Conditions: not given.
Chain of human CYP2C9 (P11712 whole entry): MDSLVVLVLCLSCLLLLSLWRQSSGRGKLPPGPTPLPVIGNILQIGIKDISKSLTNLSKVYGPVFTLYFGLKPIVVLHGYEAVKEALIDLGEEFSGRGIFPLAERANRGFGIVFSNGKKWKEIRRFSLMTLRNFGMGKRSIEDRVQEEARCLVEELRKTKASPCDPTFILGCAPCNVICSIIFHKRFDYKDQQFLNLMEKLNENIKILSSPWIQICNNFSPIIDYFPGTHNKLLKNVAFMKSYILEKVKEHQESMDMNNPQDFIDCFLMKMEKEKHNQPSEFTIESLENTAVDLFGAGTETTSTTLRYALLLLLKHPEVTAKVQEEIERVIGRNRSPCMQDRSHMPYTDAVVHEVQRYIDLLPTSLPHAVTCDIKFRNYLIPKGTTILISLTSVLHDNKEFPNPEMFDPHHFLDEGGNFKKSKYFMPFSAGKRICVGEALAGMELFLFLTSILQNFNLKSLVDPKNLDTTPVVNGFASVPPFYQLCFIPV
For `CCCCCCCCCCCCN1CCCC1=O` [1-Dodecyl-2-pyrrolidinone], the AC50 was 37.9 µM.
Work on `O=C(Oc1ccccc1)c1ccccc1` [Phenyl benzoate] yielded an AC50 of 62.1 µM.

Same assay, conditions: CYP2C9 AC50 (half-maximal activity concentration)
`CC=CC(=O)N(CC)c1ccccc1C` (mixture of isomers) [Crotamiton] was tested, and the AC50 was 40.1 µM.
Work on `Oc1c(Cl)cc(Cl)c(Cl)c1Cl` [2,3,4,6-Tetrachlorophenol] yielded an AC50 of 28.3 µM.
For `Oc1c(Cl)c(Cl)cc(Cl)c1Cl` [2,3,5,6-Tetrachlorophenol], the AC50 was 22.7 µM.
With `O=C(O)c1cc(I)cc(I)c1I` [2,3,5-Triiodobenzoic acid] the AC50 was 20.9 µM.
`Oc1c(Cl)ccc(Cl)c1Cl` [2,3,6-Trichlorophenol] was tested, and the AC50 was 35.7 µM.
`CC(C)OC(=O)COc1ccc(Cl)cc1Cl` [2,4-D isopropyl ester] showed an AC50 of 35 µM.
With `CCCCCCCCCC(C)C=O` (centres unmarked) [2-Methylundecanal] the AC50 was 65.1 µM.
With `Oc1nc(Cl)c(Cl)cc1Cl` [3,5,6-Trichloro-2-pyridinol] the AC50 was 45.4 µM.
`CCNc1nc(NC(C)C)nc(SC)n1` [Ametryn] gave an AC50 of 20.8 µM.
`CCOC(=O)CCCCCCCCC(=O)OCC` [Diethyl decanedioate] showed an AC50 of 42.2 µM.
`CC(C)(C)c1cc([N+](=O)[O-])cc([N+](=O)[O-])c1O` [Dinoterb] was tested, and the AC50 was 17.8 µM.
`Oc1c(Br)c(Br)c(Br)c(Br)c1Br` [Pentabromophenol] showed an AC50 of 30.1 µM.

These molecules were tested against T1, human CYP2C19 (assay: not given). Conditions: not given.
`CC=CC(=O)N(CC)c1ccccc1C` (mixture of isomers) [Crotamiton] was tested, and the “CYP2C19 AC50 (half-maximal activity concentration)” value (“CYP2C19 AC50” below) was “Inconclusive inhibitor”.
With `CCCCCCCCCCCCN1CCCC1=O` [1-Dodecyl-2-pyrrolidinone] the “CYP2C19 AC50” value was “Inconclusive inhibitor”.
`Oc1c(Cl)cc(Cl)c(Cl)c1Cl` [2,3,4,6-Tetrachlorophenol] was tested, and the “CYP2C19 AC50” value was “Inactive”.
With `Oc1c(Cl)c(Cl)cc(Cl)c1Cl` [2,3,5,6-Tetrachlorophenol] the “CYP2C19 AC50” value was “Inconclusive inhibitor”.
`O=C(O)c1cc(I)cc(I)c1I` [2,3,5-Triiodobenzoic acid] was tested, and the “CYP2C19 AC50” value was “Inconclusive inhibitor”.
`Oc1c(Cl)ccc(Cl)c1Cl` [2,3,6-Trichlorophenol] was tested, and the “CYP2C19 AC50” value was “Inconclusive inhibitor”.
For `CCCCCCCCCC(C)C=O` (centres unmarked) [2-Methylundecanal], the “CYP2C19 AC50” value was “Inconclusive inhibitor”.
For `Oc1nc(Cl)c(Cl)cc1Cl` [3,5,6-Trichloro-2-pyridinol], the “CYP2C19 AC50” value was “Inconclusive inhibitor”.
In the case of `CCNc1nc(NC(C)C)nc(SC)n1` [Ametryn], the “CYP2C19 AC50” value is reported as “Inconclusive inhibitor”.
For `CCOC(=O)CCCCCCCCC(=O)OCC` [Diethyl decanedioate], the “CYP2C19 AC50” value was “Inconclusive inhibitor”.
For `CC(C)(C)c1cc([N+](=O)[O-])cc([N+](=O)[O-])c1O` [Dinoterb], the “CYP2C19 AC50” value was “Inconclusive inhibitor”.
In the case of `Oc1c(Br)c(Br)c(Br)c(Br)c1Br` [Pentabromophenol], the “CYP2C19 AC50” value is reported as “Inconclusive”.
`O=C(Oc1ccccc1)c1ccccc1` [Phenyl benzoate] was tested, and the “CYP2C19 AC50” value was “Inactive”.

What follows are molecules tested against T2, human CYP1A2 (Homo sapiens, UniProt P05177) (assay: biochemical). Conditions: not given.
T2 sequence (P05177 1-516): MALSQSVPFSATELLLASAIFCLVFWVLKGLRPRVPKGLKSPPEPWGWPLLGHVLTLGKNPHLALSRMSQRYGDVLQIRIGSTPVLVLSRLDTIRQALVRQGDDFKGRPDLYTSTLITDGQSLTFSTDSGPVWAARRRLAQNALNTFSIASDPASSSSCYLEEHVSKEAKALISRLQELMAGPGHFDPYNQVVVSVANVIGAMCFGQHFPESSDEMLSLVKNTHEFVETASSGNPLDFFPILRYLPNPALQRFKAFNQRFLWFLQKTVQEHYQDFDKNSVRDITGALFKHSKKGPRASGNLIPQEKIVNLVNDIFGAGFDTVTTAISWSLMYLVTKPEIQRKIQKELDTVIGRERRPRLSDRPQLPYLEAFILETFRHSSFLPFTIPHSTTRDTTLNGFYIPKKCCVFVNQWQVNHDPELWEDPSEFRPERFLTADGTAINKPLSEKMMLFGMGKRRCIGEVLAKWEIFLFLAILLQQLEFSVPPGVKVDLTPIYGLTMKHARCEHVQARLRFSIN
Molecule `CCCCCCCCCCCCN1CCCC1=O` [1-Dodecyl-2-pyrrolidinone] has an AC50 of 29.7 µM.
For `O=C(Oc1ccccc1)c1ccccc1` [Phenyl benzoate], the AC50 was 71 µM.

Same assay, conditions: CYP1A2 AC50 (half-maximal activity concentration)
`CC=CC(=O)N(CC)c1ccccc1C` (mixture of isomers) [Crotamiton] was tested, and the AC50 was 31.4 µM.
`Oc1c(Cl)cc(Cl)c(Cl)c1Cl` [2,3,4,6-Tetrachlorophenol] was tested, and the AC50 was 57.1 µM.
`Oc1c(Cl)c(Cl)cc(Cl)c1Cl` [2,3,5,6-Tetrachlorophenol] showed an AC50 of 66.6 µM.
Work on `O=C(O)c1cc(I)cc(I)c1I` [2,3,5-Triiodobenzoic acid] yielded an AC50 of 57.3 µM.
`Oc1c(Cl)ccc(Cl)c1Cl` [2,3,6-Trichlorophenol] gave an AC50 of 37 µM.
With `CC(C)OC(=O)COc1ccc(Cl)cc1Cl` [2,4-D isopropyl ester] the AC50 was 13.6 µM.
Molecule `CCCCCCCCCC(C)C=O` (centres unmarked) [2-Methylundecanal] has an AC50 of 74.2 µM.
`Oc1nc(Cl)c(Cl)cc1Cl` [3,5,6-Trichloro-2-pyridinol] was tested, and the AC50 was 47.9 µM.
With `CCNc1nc(NC(C)C)nc(SC)n1` [Ametryn] the AC50 was 9.81 µM.
`CCOC(=O)CCCCCCCCC(=O)OCC` [Diethyl decanedioate] was tested, and the AC50 was 35.2 µM.
Work on `CCC(C)c1cc([N+](=O)[O-])cc([N+](=O)[O-])c1O` (centres unmarked) [Dinoseb] yielded an AC50 of 58.1 µM.
In the case of `CC(C)(C)c1cc([N+](=O)[O-])cc([N+](=O)[O-])c1O` [Dinoterb], the AC50 is reported as 48 µM.
For `Oc1c(Br)c(Br)c(Br)c(Br)c1Br` [Pentabromophenol], the AC50 was 57.8 µM.
With `Oc1c(Cl)c(Cl)c(Cl)c(Cl)c1Cl` [Pentachlorophenol] the AC50 was 67.4 µM.

Each molecule was assayed against CYP3A4 (Homo sapiens, UniProt P08684) (assay: biochemical). Conditions: not given.
Chain of CYP3A4 (P08684 whole entry): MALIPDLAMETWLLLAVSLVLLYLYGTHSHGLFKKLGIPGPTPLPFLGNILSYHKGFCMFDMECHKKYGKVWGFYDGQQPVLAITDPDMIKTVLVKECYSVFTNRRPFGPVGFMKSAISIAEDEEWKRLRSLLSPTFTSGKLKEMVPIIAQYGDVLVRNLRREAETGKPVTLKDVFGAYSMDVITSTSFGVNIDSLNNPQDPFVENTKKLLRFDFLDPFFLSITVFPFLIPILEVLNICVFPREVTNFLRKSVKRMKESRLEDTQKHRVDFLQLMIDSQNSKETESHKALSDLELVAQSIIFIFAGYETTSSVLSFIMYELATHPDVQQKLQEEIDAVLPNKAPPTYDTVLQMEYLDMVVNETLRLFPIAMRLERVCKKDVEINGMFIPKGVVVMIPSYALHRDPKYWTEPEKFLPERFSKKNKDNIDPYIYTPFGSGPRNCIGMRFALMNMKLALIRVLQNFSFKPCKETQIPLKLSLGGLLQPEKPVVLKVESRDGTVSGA
Work on `CCCCCCCCCCCCN1CCCC1=O` [1-Dodecyl-2-pyrrolidinone] yielded an AC50 of 9.84 µM.
Work on `O=C(Oc1ccccc1)c1ccccc1` [Phenyl benzoate] yielded an AC50 of 58.7 µM.

Same assay, conditions: CYP3A4 AC50 (half-maximal activity concentration)
`CC=CC(=O)N(CC)c1ccccc1C` (mixture of isomers) [Crotamiton] gave an AC50 of 7.51 µM.
`Oc1c(Cl)cc(Cl)c(Cl)c1Cl` [2,3,4,6-Tetrachlorophenol] gave an AC50 of 67 µM.
In the case of `Oc1c(Cl)c(Cl)cc(Cl)c1Cl` [2,3,5,6-Tetrachlorophenol], the AC50 is reported as 58.1 µM.
`O=C(O)c1cc(I)cc(I)c1I` [2,3,5-Triiodobenzoic acid] gave an AC50 of 75.1 µM.
In the case of `Oc1c(Cl)ccc(Cl)c1Cl` [2,3,6-Trichlorophenol], the AC50 is reported as 55.4 µM.
Work on `CC(C)OC(=O)COc1ccc(Cl)cc1Cl` [2,4-D isopropyl ester] yielded an AC50 of 7.02 µM.
`CCCCCCCCCC(C)C=O` (centres unmarked) [2-Methylundecanal] gave an AC50 of 87.3 µM.
`Oc1nc(Cl)c(Cl)cc1Cl` [3,5,6-Trichloro-2-pyridinol] was tested, and the AC50 was 65.8 µM.
For `CCNc1nc(NC(C)C)nc(SC)n1` [Ametryn], the AC50 was 29.2 µM.
`CCOC(=O)CCCCCCCCC(=O)OCC` [Diethyl decanedioate] was tested, and the AC50 was 26.2 µM.
Work on `CCC(C)c1cc([N+](=O)[O-])cc([N+](=O)[O-])c1O` (centres unmarked) [Dinoseb] yielded an AC50 of 33.9 µM.
For `CC(C)(C)c1cc([N+](=O)[O-])cc([N+](=O)[O-])c1O` [Dinoterb], the AC50 was 24.7 µM.
Work on `Oc1c(Br)c(Br)c(Br)c(Br)c1Br` [Pentabromophenol] yielded an AC50 of 70.2 µM.
For `Oc1c(Cl)c(Cl)c(Cl)c(Cl)c1Cl` [Pentachlorophenol], the AC50 was 54.4 µM.
